Measured values from ChEMBL document CHEMBL5465560, “Selectivity Literature for EUbOPEN Chemogenomic Library” (2024).

Legend:
[1] = biological target: T1, Serine/threonine-protein kinase D3 (Homo sapiens) (UniProt O94806); assay: Selectivity interaction (KinomeScan (DiscoverX)) EUB0001619a PRKD3; conditions: at 1 µM
T1 sequence (whole entry): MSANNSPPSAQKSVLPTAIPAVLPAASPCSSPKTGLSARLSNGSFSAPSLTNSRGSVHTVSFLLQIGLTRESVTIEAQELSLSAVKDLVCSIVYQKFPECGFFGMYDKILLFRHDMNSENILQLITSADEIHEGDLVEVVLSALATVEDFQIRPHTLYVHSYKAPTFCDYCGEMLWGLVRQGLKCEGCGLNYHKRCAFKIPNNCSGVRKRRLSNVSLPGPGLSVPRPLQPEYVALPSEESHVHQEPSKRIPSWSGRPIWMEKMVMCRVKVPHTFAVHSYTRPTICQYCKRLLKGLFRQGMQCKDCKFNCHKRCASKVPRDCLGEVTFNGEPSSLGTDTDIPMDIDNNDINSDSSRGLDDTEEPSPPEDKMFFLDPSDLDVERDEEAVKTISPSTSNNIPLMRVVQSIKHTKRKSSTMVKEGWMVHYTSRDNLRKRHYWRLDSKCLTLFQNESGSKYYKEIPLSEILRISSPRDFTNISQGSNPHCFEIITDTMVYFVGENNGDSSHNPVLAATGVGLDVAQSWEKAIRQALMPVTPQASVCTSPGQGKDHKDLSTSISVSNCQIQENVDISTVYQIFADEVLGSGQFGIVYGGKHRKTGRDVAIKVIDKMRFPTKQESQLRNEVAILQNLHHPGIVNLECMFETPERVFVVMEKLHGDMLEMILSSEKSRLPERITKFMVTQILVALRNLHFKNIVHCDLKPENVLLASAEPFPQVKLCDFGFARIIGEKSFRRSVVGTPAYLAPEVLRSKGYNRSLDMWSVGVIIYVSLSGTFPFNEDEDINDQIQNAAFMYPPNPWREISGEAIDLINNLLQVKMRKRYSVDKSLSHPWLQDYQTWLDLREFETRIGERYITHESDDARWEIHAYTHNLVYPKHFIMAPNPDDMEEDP

[2] = biological target: T2, Tyrosine-protein kinase JAK3 (Homo sapiens) (UniProt P52333); assay: Selectivity interaction (ActivX KiNativ screen (ex vivo kinase selectivity in human PBMCs)) EUB0001619a JAK3; assay type: cell-based; conditions: PBMC, at 1 µM
T2 sequence (whole entry): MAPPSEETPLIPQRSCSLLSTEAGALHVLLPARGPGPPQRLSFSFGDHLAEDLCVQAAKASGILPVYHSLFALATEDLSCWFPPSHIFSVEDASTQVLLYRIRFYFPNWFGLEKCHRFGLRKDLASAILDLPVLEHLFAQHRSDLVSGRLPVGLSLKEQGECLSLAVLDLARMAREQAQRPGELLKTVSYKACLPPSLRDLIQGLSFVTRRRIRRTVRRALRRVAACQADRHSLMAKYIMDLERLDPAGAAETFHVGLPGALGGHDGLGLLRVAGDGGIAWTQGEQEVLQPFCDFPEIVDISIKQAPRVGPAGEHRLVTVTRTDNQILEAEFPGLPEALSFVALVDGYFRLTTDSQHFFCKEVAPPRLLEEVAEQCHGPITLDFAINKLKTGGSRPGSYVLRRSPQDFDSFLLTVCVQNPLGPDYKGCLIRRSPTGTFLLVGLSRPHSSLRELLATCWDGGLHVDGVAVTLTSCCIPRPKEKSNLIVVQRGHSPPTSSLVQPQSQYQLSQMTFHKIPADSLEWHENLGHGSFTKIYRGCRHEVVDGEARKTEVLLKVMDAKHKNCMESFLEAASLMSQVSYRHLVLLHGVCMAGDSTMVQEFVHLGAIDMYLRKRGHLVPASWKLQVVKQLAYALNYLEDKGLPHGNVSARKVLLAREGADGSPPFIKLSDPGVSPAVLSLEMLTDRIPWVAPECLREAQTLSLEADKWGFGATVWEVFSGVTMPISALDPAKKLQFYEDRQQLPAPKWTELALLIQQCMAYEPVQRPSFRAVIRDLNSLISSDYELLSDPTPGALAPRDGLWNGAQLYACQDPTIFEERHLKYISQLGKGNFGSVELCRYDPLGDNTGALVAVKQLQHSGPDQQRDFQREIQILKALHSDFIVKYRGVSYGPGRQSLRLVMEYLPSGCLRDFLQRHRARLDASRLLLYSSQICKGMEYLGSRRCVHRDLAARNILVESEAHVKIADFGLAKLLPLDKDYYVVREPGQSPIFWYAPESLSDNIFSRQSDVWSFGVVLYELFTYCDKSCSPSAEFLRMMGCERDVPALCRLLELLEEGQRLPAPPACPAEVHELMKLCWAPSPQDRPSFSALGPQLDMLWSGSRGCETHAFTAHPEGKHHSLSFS

[3] = biological target: Serine/threonine-protein kinase OSR1 (Homo sapiens) (UniProt O95747); assay: Selectivity interaction (KinomeScan (DiscoverX)) EUB0000655a OXSR1; conditions: at 10 µM
Chain of Serine/threonine-protein kinase OSR1 (Homo sapiens) (O95747 2-527 limits assumed): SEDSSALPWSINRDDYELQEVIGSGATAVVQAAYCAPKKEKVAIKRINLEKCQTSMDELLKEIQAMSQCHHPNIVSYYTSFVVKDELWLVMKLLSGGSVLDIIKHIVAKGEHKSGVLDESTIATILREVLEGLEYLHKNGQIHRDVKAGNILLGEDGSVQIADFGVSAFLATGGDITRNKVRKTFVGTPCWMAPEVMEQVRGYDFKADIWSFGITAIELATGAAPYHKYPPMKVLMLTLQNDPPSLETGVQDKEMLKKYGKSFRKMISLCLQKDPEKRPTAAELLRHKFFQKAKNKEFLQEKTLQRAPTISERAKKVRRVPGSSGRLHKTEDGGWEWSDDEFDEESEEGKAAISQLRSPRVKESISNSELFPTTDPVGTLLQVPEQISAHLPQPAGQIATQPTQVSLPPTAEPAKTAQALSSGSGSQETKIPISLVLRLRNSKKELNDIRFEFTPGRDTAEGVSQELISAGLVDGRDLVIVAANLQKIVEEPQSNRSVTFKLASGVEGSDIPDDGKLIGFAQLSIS

[4] = biological target: T3, Dual serine/threonine and tyrosine protein kinase (Homo sapiens) (UniProt Q6XUX3); assay: Selectivity interaction (KinomeScan (DiscoverX)) EUB0000695a DSTYK; conditions: at 100 nM
T3 sequence (whole entry): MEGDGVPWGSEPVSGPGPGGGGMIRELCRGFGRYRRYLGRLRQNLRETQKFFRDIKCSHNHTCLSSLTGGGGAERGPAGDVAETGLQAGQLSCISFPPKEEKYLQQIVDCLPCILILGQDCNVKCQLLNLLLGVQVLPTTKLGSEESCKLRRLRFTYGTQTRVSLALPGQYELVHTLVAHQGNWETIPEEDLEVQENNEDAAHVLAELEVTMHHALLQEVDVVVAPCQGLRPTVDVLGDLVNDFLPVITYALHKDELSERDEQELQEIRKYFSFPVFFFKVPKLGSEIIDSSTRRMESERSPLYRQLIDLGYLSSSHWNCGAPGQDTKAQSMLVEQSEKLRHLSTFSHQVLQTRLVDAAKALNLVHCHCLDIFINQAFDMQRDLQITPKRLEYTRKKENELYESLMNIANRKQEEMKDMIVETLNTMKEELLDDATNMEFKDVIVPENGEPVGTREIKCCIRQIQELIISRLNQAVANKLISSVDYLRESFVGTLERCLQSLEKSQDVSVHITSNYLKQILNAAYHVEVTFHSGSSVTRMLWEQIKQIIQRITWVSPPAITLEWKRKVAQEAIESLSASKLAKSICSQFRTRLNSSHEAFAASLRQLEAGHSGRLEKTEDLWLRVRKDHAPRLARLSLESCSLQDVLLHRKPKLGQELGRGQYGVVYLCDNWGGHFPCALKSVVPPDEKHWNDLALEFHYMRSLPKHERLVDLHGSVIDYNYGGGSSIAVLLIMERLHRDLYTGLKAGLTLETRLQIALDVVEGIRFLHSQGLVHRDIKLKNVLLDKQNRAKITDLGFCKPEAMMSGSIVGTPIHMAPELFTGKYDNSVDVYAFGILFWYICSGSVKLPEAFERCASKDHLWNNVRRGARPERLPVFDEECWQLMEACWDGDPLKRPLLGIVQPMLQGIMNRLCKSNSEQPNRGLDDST

N#Cc1cccc(-c2c[nH]c3ncnc(N4CCOCC4)c23)c1
% of control [1]: 64%
% of inhibition [2]: 6%

CN(C)CCOc1ccc(-c2nc(-c3ccncc3)c(-c3ccc4c(c3)CC/C4=N\O)[nH]2)cc1
% of control [3]: 100%

Cc1cc(F)c(C(=O)Nc2cccc(-c3nncn3C(C)C)n2)cc1-n1cnc(C2CC2)c1
% of control [4]: 79%
